Assay results from US20230111310A1, “CARBOXYLIC ACID DERIVATIVE-SUBSTITUTED IMINO ARYL COMPOUND, PREPARATION METHOD THEREFOR, HERBICIDAL COMPOSITION AND USE THEREOF” (Qingdao Kingagroot Chemical Compound Co., Ltd., priority 2020, published 2023).

How the values were obtained:
Test in all cases: Weeding effect in post-emergence stage
Assay type in all cases: in vivo
Settings in all cases: fresh weight control rate level
[1] = tested on: Eleusine indica
How it was run: (§1)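 Weeds were treated post-emergence at 2-3 leaves with compound doses from 7.5 up to 500 g/ha, formulated in acetone–Tween 80 with methyl oleate synergist. Efficacy was assessed as growth control after 3 weeks.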

[2] = tested on: Setaria viridis
How it was run: as §1

[3] = tested on: Alopecurus japonicus
How it was run: as §1

[4] = tested on: Digitaria sanguinalis
How it was run: as §1

[5] = tested on: Abutilon theophrasti
How it was run: as §1

[6] = tested on: Echinochloa crusgalli
How it was run: as §1

In the case of `COC(=O)C(C)O/N=C/c1cc(-n2c(=O)cc(C(F)(F)F)n(C)c2=S)c(F)cc1Br` (racemic) [Compound 394], the “Weeding effect in post-emergence stage, Eleusine indica (level)” value (from here on “Weeding effect … Eleusine indica (level)”) ([1]; Dose 60 g/ha) is reported as 5 (Level 5: growth control rate is above 85%), the “Weeding effect in post-emergence stage, Setaria viridis (level)” value (shortened to “Weeding effect … Setaria viridis (level)”) ([2]; Dose 60 g/ha) is reported as 5 (Level 5: growth control rate is above 85%) and the “Weeding effect in post-emergence stage, Alopecurus japonicus (level)” value (“Weeding effect … Alopecurus japonicus (level)” below) ([3]; Dose 60 g/ha) is reported as 5 (Level 5: growth control rate is above 85%). For the same compound, the “Weeding effect in post-emergence stage, Digitaria sanguinalis (level)” value (shortened to “Weeding effect … Digitaria sanguinalis (level)”) ([4]; Dose 60 g/ha) was 5 (Level 5: growth control rate is above 85%), the “Weeding effect in post-emergence stage, Abutilon theophrasti (level)” value (from here on “Weeding effect … Abutilon theophrasti (level)”) ([5]; Dose 60 g/ha) was 5 (Level 5: growth control rate is above 85%) and the “Weeding effect in post-emergence stage, Echinochloa crusgalli (level)” value (“Weeding effect … Echinochloa crusgalli (level)” below) ([6]; Dose 60 g/ha) was 5 (Level 5: growth control rate is above 85%).

`COC(=O)C(C)O/N=C/c1cc(-n2c(=O)cc(C(F)(F)F)n(C)c2=S)c(F)cc1C(F)(F)F` (racemic) [Compound 395] was tested, and the “Weeding effect … Eleusine indica (level)” value ([1]; Dose 60 g/ha) was 5 (Level 5: growth control rate is above 85%), the “Weeding effect … Setaria viridis (level)” value ([2]; Dose 60 g/ha) was 5 (Level 5: growth control rate is above 85%) and the “Weeding effect … Alopecurus japonicus (level)” value ([3]; Dose 60 g/ha) was 5 (Level 5: growth control rate is above 85%). For the same compound, the “Weeding effect … Digitaria sanguinalis (level)” value ([4]; Dose 60 g/ha) was 5 (Level 5: growth control rate is above 85%), the “Weeding effect … Abutilon theophrasti (level)” value ([5]; Dose 60 g/ha) was 5 (Level 5: growth control rate is above 85%) and the “Weeding effect … Echinochloa crusgalli (level)” value ([6]; Dose 60 g/ha) was 5 (Level 5: growth control rate is above 85%).

In the case of `COC(=O)C(C)O/N=C/c1cc(-n2c(=O)cc(C(F)(F)F)n(C)c2=S)c(F)cc1C#N` (racemic) [Compound 396], the “Weeding effect … Eleusine indica (level)” value ([1]; Dose 60 g/ha) is reported as 5 (Level 5: growth control rate is above 85%), the “Weeding effect … Setaria viridis (level)” value ([2]; Dose 60 g/ha) is reported as 5 (Level 5: growth control rate is above 85%) and the “Weeding effect … Alopecurus japonicus (level)” value ([3]; Dose 60 g/ha) is reported as 5 (Level 5: growth control rate is above 85%). For the same compound, the “Weeding effect … Digitaria sanguinalis (level)” value ([4]; Dose 60 g/ha) was 5 (Level 5: growth control rate is above 85%), the “Weeding effect … Abutilon theophrasti (level)” value ([5]; Dose 60 g/ha) was 5 (Level 5: growth control rate is above 85%) and the “Weeding effect … Echinochloa crusgalli (level)” value ([6]; Dose 60 g/ha) was 5 (Level 5: growth control rate is above 85%).

In the case of `COC(=O)C(CC(C)C)O/N=C/c1cc(-n2c(=O)cc(C(F)(F)F)n(C)c2=O)c(F)cc1Cl` (racemic) [Compound 455], the “Weeding effect … Eleusine indica (level)” value ([1]; Dose 15 g/ha) is reported as 5 (Level 5: growth control rate is above 85%), the “Weeding effect … Setaria viridis (level)” value ([2]; Dose 15 g/ha) is reported as 5 (Level 5: growth control rate is above 85%) and the “Weeding effect … Alopecurus japonicus (level)” value ([3]; Dose 15 g/ha) is reported as 5 (Level 5: growth control rate is above 85%). The “Weeding effect … Digitaria sanguinalis (level)” value ([4]; Dose 15 g/ha) was 5 (Level 5: growth control rate is above 85%), the “Weeding effect … Abutilon theophrasti (level)” value ([5]; Dose 15 g/ha) was 5 (Level 5: growth control rate is above 85%) and the “Weeding effect … Echinochloa crusgalli (level)” value ([6]; Dose 15 g/ha) was 5 (Level 5: growth control rate is above 85%).

For `COC(=O)C(O/N=C/c1cc(-n2c(=O)cc(C(F)(F)F)n(C)c2=O)c(F)cc1Cl)C1CC1` (racemic) [Compound 456], the “Weeding effect … Eleusine indica (level)” value ([1]; Dose 30 g/ha) was 5 (Level 5: growth control rate is above 85%), the “Weeding effect … Setaria viridis (level)” value ([2]; Dose 30 g/ha) was 5 (Level 5: growth control rate is above 85%) and the “Weeding effect … Alopecurus japonicus (level)” value ([3]; Dose 30 g/ha) was 5 (Level 5: growth control rate is above 85%). For the same compound, the “Weeding effect … Digitaria sanguinalis (level)” value ([4]; Dose 30 g/ha) was 5 (Level 5: growth control rate is above 85%), the “Weeding effect … Abutilon theophrasti (level)” value ([5]; Dose 30 g/ha) was 5 (Level 5: growth control rate is above 85%) and the “Weeding effect … Echinochloa crusgalli (level)” value ([6]; Dose 30 g/ha) was 5 (Level 5: growth control rate is above 85%).

With `COC(=O)C(CC1CC1)O/N=C/c1cc(-n2c(=O)cc(C(F)(F)F)n(C)c2=O)c(F)cc1Cl` (racemic) [Compound 462] the “Weeding effect … Eleusine indica (level)” value ([1]; Dose 15 g/ha) was 5 (Level 5: growth control rate is above 85%), the “Weeding effect … Setaria viridis (level)” value ([2]; Dose 15 g/ha) was 5 (Level 5: growth control rate is above 85%) and the “Weeding effect … Alopecurus japonicus (level)” value ([3]; Dose 15 g/ha) was 5 (Level 5: growth control rate is above 85%). The “Weeding effect … Digitaria sanguinalis (level)” value ([4]; Dose 15 g/ha) was 5 (Level 5: growth control rate is above 85%), the “Weeding effect … Abutilon theophrasti (level)” value ([5]; Dose 15 g/ha) was 5 (Level 5: growth control rate is above 85%) and the “Weeding effect … Echinochloa crusgalli (level)” value ([6]; Dose 15 g/ha) was 5 (Level 5: growth control rate is above 85%).

In the case of `COC(=O)C(CF)O/N=C/c1cc(-n2c(=O)cc(C(F)(F)F)n(C)c2=O)c(F)cc1Cl` (racemic) [Compound 463], the “Weeding effect … Eleusine indica (level)” value ([1]; Dose 15 g/ha) is reported as 5 (Level 5: growth control rate is above 85%), the “Weeding effect … Setaria viridis (level)” value ([2]; Dose 15 g/ha) is reported as 5 (Level 5: growth control rate is above 85%) and the “Weeding effect … Alopecurus japonicus (level)” value ([3]; Dose 15 g/ha) is reported as 5 (Level 5: growth control rate is above 85%). For the same compound, the “Weeding effect … Digitaria sanguinalis (level)” value ([4]; Dose 15 g/ha) was 5 (Level 5: growth control rate is above 85%), the “Weeding effect … Abutilon theophrasti (level)” value ([5]; Dose 15 g/ha) was 5 (Level 5: growth control rate is above 85%) and the “Weeding effect … Echinochloa crusgalli (level)” value ([6]; Dose 15 g/ha) was 5 (Level 5: growth control rate is above 85%).
